# Data: patent US12371464B2, “Polypeptides and uses thereof” (MEDIMMUNE LIMITED, priority 2020, dated 2025)
# Numbered stars: 1 amine (or outer) side, 2 acyl side, 3 side chain; on linkers, the order of the positions; unused ones are H or OH. Bridge positions count the residues as written; N and C are the ends. Square brackets hold non-standard residues; d marks the D form. Side chains are listed from the residue outwards. Peptide text beside a SMILES is read from it. * marks the point of attachment. C20 diacid = O=C(O)CCCCCCCCCCCCCCCCCCC(=O)*; C18 diacid = O=C(O)CCCCCCCCCCCCCCCCC(=O)*; γGlu = O=C(O)[C@H](CCC(=O)[*:2])N[*:1]; αMeF = C[C@](N)(Cc1ccccc1)C(=O)O; Dab = NCC[C@H](N)C(=O)O; Aib = CC(C)(N)C(=O)O
# Assays:
# [1] = molecular target: T1, human amylin receptor (calcitonin receptor co-expressed with receptor activity modifying protein, RAMP3) (hAMYR3) (Homo sapiens, UniProt O60896+P30988); test: cAMP production in 1321N1 cells with stable recombinant expression of human amylin receptor (hAMYR3); assay type: cell-based; details: cAMP production, 1321N1 cells expressing human amylin3 receptor
# T1 construct: expressed in transfected cells
# T1 sequence (P30988 25-474): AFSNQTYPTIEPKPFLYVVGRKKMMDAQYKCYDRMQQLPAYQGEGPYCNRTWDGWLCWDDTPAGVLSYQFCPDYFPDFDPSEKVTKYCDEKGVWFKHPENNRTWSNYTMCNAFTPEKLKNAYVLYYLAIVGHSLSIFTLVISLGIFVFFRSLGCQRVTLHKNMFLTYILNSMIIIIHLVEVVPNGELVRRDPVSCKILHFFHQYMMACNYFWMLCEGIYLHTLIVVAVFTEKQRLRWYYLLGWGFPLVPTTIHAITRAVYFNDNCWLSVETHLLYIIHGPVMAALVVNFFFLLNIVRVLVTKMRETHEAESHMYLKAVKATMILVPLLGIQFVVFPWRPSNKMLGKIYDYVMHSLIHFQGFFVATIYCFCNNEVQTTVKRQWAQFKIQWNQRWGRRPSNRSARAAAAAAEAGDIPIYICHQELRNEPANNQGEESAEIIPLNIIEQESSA
# T1 sequence (O60896 24-148 partner): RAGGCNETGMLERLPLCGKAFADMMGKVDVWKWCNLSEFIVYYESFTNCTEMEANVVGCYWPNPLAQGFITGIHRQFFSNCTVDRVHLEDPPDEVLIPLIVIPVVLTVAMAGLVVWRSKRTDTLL
# Experimental: The functional activities of lipidated pramlintide analogue peptides, such as cAMP production, were tested in 1321N1 cell line with stable recombinant expression of human calcitonin receptor (hCTR) or human amylin receptor (calcitonin receptor co-expressed with receptor activity modifying protein, RAMP3) (hAMYR3) or HEK cells with stable recombinant expression of rat calcitonin receptor (rat CTR) or rat amylin receptor (calcitonin receptor co-expressed with receptor activity modifying protein, RAMP3) (Rat AMYR3).
# Cryopreserved cell stock was thawed rapidly in a water-bath, suspended in assay buffer (0.1% BSA (Sigma #A3059) in HBSS (Sigma #H8264) with 25 mM HEPES, pH 7.4 and containing 0.5 mM IB MX (Sigma #17018)) and spun at 240×g for 5 minutes. Cells were re-suspended in assay buffer at a batch-dependent optimized concentration (e.g. hCTR cells at 0.125×10^5 cells/mL, hAMYR3 cells at 0.125×10^5 cells/mL, rat CTR cells at 1×10^5 cells/mL, rat AMYR3 at 2×10^5 cells/mL).
# The test peptide stock was prepared in DMSO and diluted in assay buffer to reach stated concentrations and transferred in duplicates into a 384-black shallow well microtitre assay plate (Corning #3676). Cells were added to the assay plate, incubated at room temperature for 30 minutes and the CAMP level measured using CAMP dynamic 2 HTRF kit (Cisbio, Cat #62AM4PEJ), following the two step protocol as per manufacturer's recommendations. The plates were read on an Envision (Perkin Elmer) using excitation wavelength of 320 nm and emission wavelengths of 620 nm & 665 nm.
# Data was transformed to % Delta F as described in the manufacturer's guidelines and analyzed as percent activation of maximal amylin or calcitonin effect by 4-parameter logistic fit to determine EC50 values. The selectivity of a peptide to hAMYR vs hCTR is defined as a ratio of EC50 values at the two receptors.
# lean rats = test: Rat acute food intake study; assay type: in vivo, Sprague Dawley rats; details: 20 nmol/kg subcutaneously
# Experimental: Male Sprague Dawley rats were obtained from Taconic Denmark, ApS at approximately 7 weeks of age. . . . Rats were implanted with a microchip for identification, housed 4/cage with enrichment, free access to food and water, and allowed one week acclimatisation while non-invasive characterization was performed. Rats were on a 12:12 light:dark cycle that switches at 1 pm:1 am. Food intake was monitored via the HM2 system (Lafayette Instrument) that allows for monitoring in a home cage. As each rat enters an access tunnel to feed, an IR beam is broken, and the implanted microchip is read. Resulting changes to food weight is then assigned to the specific animal. Social order has shown no impact to overall feeding patterns and amounts.
# Rats were sorted into groups based on Day-1 body weight and 24-hour accumulated food intake (n=7 per group). On Day 0 rats were weighed, then fasted for 6 hours. Thirty (30) minutes prior to the reintroduction of food, rats were dosed subcutaneously (5 ml/kg) with 20 nmol/kg of test compound or 60 nmol/kg peptide 1 (pramlintide) diluted in an appropriate vehicle, after which food was returned, and lights went out. Automated food intake was monitored for the following 3 days, and rats were weighed once per day.
# Food intake per rat was batched into 1-hour intervals and integrated into Gubra's GubraView data management system. Discrete food intake data was exported into MS Excel from which cumulative food intake data was generated. Cumulative food intake data was then transposed into GraphPad Prism (v8.0.1) for analysis of dark period feeding
# [2] = Thioflavin T fibrillation assay; assay type: physicochemical; details: 1 mg/mL in 25 mM sodium acetate buffer pH 4.0, 37° C., 6 days, orbital shaking; >144 h = no increase
# Method in brief: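 Peptides at 1 mg/mL in 25 mM sodium acetate pH 4.0 were mixed with ThT (0.25 mM stock) and held 6 days at 37 °C with intermittent orbital shaking at 500–750 rpm. Fluorescence (ex 444/em 480 nm) was read every 30 min, with buffer baseline correction and 5 replicates. Value: mean time to a detectable fluorescence increase.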
EC50 [1] [nM],Time taken to detect increase in fluorescence intensity [2] [h],Structure (SMILES),Cummulative food intake (% vehicle treated intake) At 12 h (lean rats) [% vehicle treated intake],Cummulative food intake (% vehicle treated intake) At 24 h (lean rats; at 24 h) [% vehicle treated intake],Cummulative food intake (% vehicle treated intake) At 48 h (lean rats; at 48 h) [% vehicle treated intake]
1.2,–,"CC[C@H](C)[C@H](NC(=O)[C@H](C)NC(=O)[C@@H]1CCCN1C(=O)[C@H](Cc1ccccc1)NC(=O)[C@H](CC(N)=O)NC(=O)C(C)(C)NC(=O)[C@H](CO)NC(=O)[C@H](CO)NC(=O)[C@H](Cc1c[nH]cn1)NC(=O)[C@@H](NC(=O)[C@H](CC(C)C)NC(=O)[C@H](Cc1ccccc1)NC(=O)[C@H](CC(N)=O)NC(=O)[C@H](C)NC(=O)[C@H](CC(C)C)NC(=O)[C@H](CCCNC(=N)N)NC(=O)[C@H](CCC(N)=O)NC(=O)[C@@H](NC(=O)[C@H](C)NC(=O)[C@@H]1CSSC[C@H](NC(=O)[C@@H](N)CCCCNC(=O)CC[C@H](NC(=O)CC[C@H](NC(=O)CCCCCCCCCCCCCCCCCCC(=O)O)C(=O)O)C(=O)O)C(=O)N[C@@H](CC(N)=O)C(=O)N[C@@H]([C@@H](C)O)C(=O)N[C@@H](C)C(=O)N[C@@H]([C@@H](C)O)C(=O)N1)[C@@H](C)O)C(C)C)C(=O)N[C@@H](CC(C)C)C(=O)N[C@@H](CO)C(=O)N1CCC[C@H]1C(=O)N[C@H](C(=O)N[C@@H](CC(N)=O)C(=O)N[C@H](C(=O)NCC(=O)N[C@@H](CO)C(=O)N[C@@H](CCN)C(=O)N[C@H](C(=O)N[C@@H](Cc1ccc(O)cc1)C(N)=O)[C@@H](C)O)C(C)C)[C@@H](C)O [Peptide 125, K(γE-γE-C20diacid)[CNTATC]ATQRLANFLVHSS(Aib)NFPAILSPTNVGS(Dab)TY-amide] (H-K([γGlu-γGlu-C20 diacid])CNTATCATQRLANFLVHSS[Aib]NFPAILSPTNVGS[Dab]TY-NH2; disulfide 2-7 (inferred))",–,–,–
–,>144,"CC[C@H](C)[C@H](NC(=O)[C@@H]1CCCN1C(=O)CNC(=O)[C@](C)(Cc1ccccc1)NC(=O)[C@H](CC(N)=O)NC(=O)[C@H](CC(N)=O)NC(=O)[C@H](CO)NC(=O)[C@H](CO)NC(=O)[C@H](Cc1c[nH]cn1)NC(=O)[C@H](CCCNC(=N)N)NC(=O)[C@H](CC(C)C)NC(=O)[C@H](Cc1ccccc1)NC(=O)[C@H](CCC(=O)O)NC(=O)[C@H](C)NC(=O)[C@H](CC(C)C)NC(=O)[C@H](CCCNC(=N)N)NC(=O)[C@H](CCC(N)=O)NC(=O)[C@@H](NC(=O)[C@H](C)NC(=O)[C@@H]1CSSC[C@H](NC(=O)[C@H](CCCCN)NC(=O)[C@@H](N)CCCCNC(=O)CC[C@H](NC(=O)CCCCCCCCCCCCCCCCC(=O)O)C(=O)O)C(=O)N[C@@H](CC(N)=O)C(=O)N[C@@H]([C@@H](C)O)C(=O)N[C@@H](C)C(=O)N[C@@H]([C@@H](C)O)C(=O)N1)[C@@H](C)O)C(=O)N[C@@H](CC(C)C)C(=O)N1CCC[C@H]1C(=O)N1CCC[C@H]1C(=O)N[C@H](C(=O)N[C@@H](CC(N)=O)C(=O)N[C@H](C(=O)NCC(=O)N[C@@H](CO)C(=O)N[C@@H](CC(N)=O)C(=O)N[C@H](C(=O)N[C@@H](Cc1ccc(O)cc1)C(N)=O)[C@@H](C)O)C(C)C)[C@@H](C)O [Peptide 12, K(γE-C18diacid)K[CNTATC]ATQRLAEFLRHSSNN(αMePhe)GPILPPTNVGSNTY-amide] (H-K([γGlu-C18 diacid])KCNTATCATQRLAEFLRHSSNN[αMeF]GPILPPTNVGSNTY-NH2; disulfide 3-8; N-terminus assumed)",9.4,7.5,–
–,>144,"CC[C@H](C)[C@H](NC(=O)[C@@H]1CCCN1C(=O)CNC(=O)[C@](C)(Cc1ccccc1)NC(=O)[C@H](CC(N)=O)NC(=O)[C@H](CC(N)=O)NC(=O)[C@H](CO)NC(=O)[C@H](CO)NC(=O)[C@H](Cc1c[nH]cn1)NC(=O)[C@H](CCCNC(=N)N)NC(=O)[C@H](CC(C)C)NC(=O)[C@H](Cc1ccccc1)NC(=O)[C@H](CC(N)=O)NC(=O)[C@H](C)NC(=O)[C@H](CC(C)C)NC(=O)[C@H](CCCNC(=N)N)NC(=O)[C@H](CCC(N)=O)NC(=O)[C@@H](NC(=O)[C@H](C)NC(=O)[C@@H]1CSSC[C@H](NC(=O)[C@@H](N)CCCCNC(=O)CC[C@H](NC(=O)CC[C@H](NC(=O)CCCCCCCCCCCCCCCCC(=O)O)C(=O)O)C(=O)O)C(=O)N[C@@H](CC(N)=O)C(=O)N[C@@H]([C@@H](C)O)C(=O)N[C@@H](C)C(=O)N[C@@H]([C@@H](C)O)C(=O)N1)[C@@H](C)O)C(=O)N[C@@H](CC(C)C)C(=O)N1CCC[C@H]1C(=O)N1CCC[C@H]1C(=O)N[C@H](C(=O)N[C@@H](CC(N)=O)C(=O)N[C@H](C(=O)NCC(=O)N[C@@H](CO)C(=O)N[C@@H](CC(N)=O)C(=O)N[C@H](C(=O)N[C@@H](Cc1ccc(O)cc1)C(N)=O)[C@@H](C)O)C(C)C)[C@@H](C)O [Peptide 20, K(γE-γE-C18diacid)[CNTATC]ATQRLANFLRHSSNN(αMePhe)GPILPPTNVGSNTY-amide] (H-K([γGlu-γGlu-C18 diacid])CNTATCATQRLANFLRHSSNN[αMeF]GPILPPTNVGSNTY-NH2; disulfide 2-7; N-terminus assumed)",27,–,–
–,>144,CC[C@H](C)[C@H](NC(=O)[C@@H]1CCCN1C(=O)CNC(=O)[C@H](Cc1ccccc1)NC(=O)[C@H](CC(N)=O)NC(=O)[C@H](CC(N)=O)NC(=O)[C@H](CO)NC(=O)[C@H](CO)NC(=O)[C@H](Cc1c[nH]cn1)NC(=O)C(C)(C)NC(=O)[C@H](CC(C)C)NC(=O)[C@H](Cc1ccccc1)NC(=O)[C@H](CC(N)=O)NC(=O)[C@H](C)NC(=O)[C@H](CC(C)C)NC(=O)[C@H](CCCNC(=N)N)NC(=O)[C@H](CCC(N)=O)NC(=O)[C@@H](NC(=O)[C@H](C)NC(=O)[C@@H]1CSSC[C@H](NC(=O)[C@H](CCCCN)NC(=O)[C@@H](N)CCCCNC(=O)CC[C@H](NC(=O)CCCCCCCCCCCCCCCCC(=O)O)C(=O)O)C(=O)N[C@@H](CC(N)=O)C(=O)N[C@@H]([C@@H](C)O)C(=O)N[C@@H](C)C(=O)N[C@@H]([C@@H](C)O)C(=O)N1)[C@@H](C)O)C(=O)N[C@@H](CC(C)C)C(=O)N1CCC[C@H]1C(=O)N1CCC[C@H]1C(=O)N[C@H](C(=O)N[C@@H](CC(N)=O)C(=O)N[C@H](C(=O)NCC(=O)N[C@@H](CO)C(=O)N[C@@H](CC(N)=O)C(=O)N[C@H](C(=O)N[C@@H](Cc1ccc(O)cc1)C(N)=O)[C@@H](C)O)C(C)C)[C@@H](C)O [Peptide 129] (H-K([γGlu-C18 diacid])KCNTATCATQRLANFL[Aib]HSSNNFGPILPPTNVGSNTY-NH2; disulfide 3-8; N-terminus assumed),29,–,51
